In patent US11377444B2, “Pyridopyrimidine compounds acting as mTORC 1/2 dual inhibitors” (MEDSHINE DISCOVERY INC., priority 2017, dated 2022):
Where two headings read alike, the source gives them in different places.

Key:
[1] = biological target: T1, mTOR kinase (mTORC1 and mTORC2 kinase complex) (Homo sapiens, UniProt P42345); assay: In vitro evaluation of mTOR kinase inhibitory activity (DiscoverX ligand-bead competition binding, qPCR readout)
T1 construct: purchased DiscoverX; host or cells: HEK-293
Protocol: Experimental Embodiment 1: In Vitro Evaluation of mTOR Kinase Inhibitory Activity This experiment was performed by DiscoverX. All materials and methods were obtained from DiscoverX.
Kinase activity analysis.
1. Labeled mTOR kinase was stably expressed in HEK-293 cells.
2. Streptavidin magnetic beads were treated with biotinylated small molecule ligands at room temperature for 30 minutes to produce affinity resin for kinase analysis;
3. Ligand beads were blocked with excess biotin and washed with buffer (1% bovine serum albumin, […]) to remove unbound ligand and non-specifically bound ligand;
4. The assembly of kinase and ligand and affinity beads, and the binding reaction between the compound and the three were performed in buffer (20% blocking buffer, 0.17x phosphate buffer, 0.05% Tween […]);
5. The test compounds were dissolved in dimethyl sulfoxide;
6. All test compounds were dissolved in DMSO, and then directly diluted […]
7. The solution was placed in a 384-well polypropylene plate, wherein the volume of each well was 0.02 mL;
8. The plate was shaked for an hour at room temperature;
9. The plate was washed with buffer (1× PBS, 0.05% Tween 20);
10. The affinity beads were resuspended in buffer (1× PBS, 0.05% Tween […] non-biotin affinity ligand) and incubated at room temperature for 30 minutes;
11. The kinase concentration in the eluate was deteced by qPCR.

MCF-7 cell = assay: Cell proliferation inhibitory activity (Cell-Titer-Glo), MCF-7; format: cell-based; settings: Homo sapiens, MCF7, 72 h; 3 days incubation
Source text: (§1) Experimental Embodiment 2: Evaluation of Cell Proliferation Inhibitory Activity
(§2) Experiment objective: To detect cell proliferation inhibitory activity of the tested compounds.
(§3) Experimental principle: The luciferase in the Cell-Titer-Glo reagent produces oxyluciferin using luciferin, oxygen and ATP as reaction substrates, and releases energy in the form of light. Since the reaction of luciferase requires ATP, the total amount of light generated by the reaction is proportional to the total amount of ATP that reflects cell viability.
(§4) Cell lines: MCF-7 cell line […], HT-29 cell line (ATCC-HTB-38), OE21 (ECACC-96062201), NCI-N87 cell line (ATCC-CRL-5822)
(§5) Cell culture medium: (RPMI 1640 culture medium (Invitrogen #1868546; 10% serum Invitrogen #1804958; L-glutamine 1×, Invitrogen #1830863; dual antibiotic Hyclone #J170012))
(§6) Cell Titer-Glo® Luminescent Cell Viability Assay Kit (Promega #G7573)
(§7) The cells were inoculated in a 384- or 96-well plate with a density of 1000 cells per well and 25 μL per well according to the instructions of the cell inoculating plate. The edge wells were not inoculated with cells, and was supplemented with […].
(§8) (i) The mother solution of the compound was 10 mM, and diluted with DMSO to an initial concentration of 4 mM. The compound was added to the compound mother solution, 9 μL per well.
(§9) (ii) The compound was diluted with ECHO liquid-handling workstation. Each well of the cell plate was added with 125 nL compound. Each well of the cell wells in 2nd column and 23rd column was added with 125 nL DMSO, and each of the PBS wells in 1st column and 24th column was added with 125 nL DMSO.
(§10) (iii) Each well of the cell plate was supplemented with 25 μL culture medium, the final volume in each well of the cell plate was 50 μL, […] 3 times dilution, 10 concentrations, each concentration was duplicated in left and right wells, the final DMSO concentration was 0.25%.
(§11) 2.3. After addition of the compound, centrifugation was performed at 1000 rpm for 1 min, and the cell plate was placed in a 37° C., 5% CO2 incubator for 3 days.
(§12) The cell plate was taken out from the incubator and equilibrated at room temperature for 30 minutes. 25 μL Cell-Titer-Glo reagent was added to each well, shaken for one minute to mix thoroughly, centrifuged at 1000 rpm for 1 minute. After 10 minutes, the plate was read on PerkinElmer Envision with a […] reading time was set at 0.2 second.

HT-29 cell = assay: Cell proliferation inhibitory activity (Cell-Titer-Glo), HT-29; format: cell-based; settings: Homo sapiens, HT-29, 72 h, 3 days incubation
Source text: as §1, §2, §3, §4, §5, §6, §7, §8, §9, §10, §11, §12

OE21 cell = assay: Cell proliferation inhibitory activity (Cell-Titer-Glo), OE21; format: cell-based; settings: OE21, 72 h; 3 days incubation
Source text: as §1, §2, §3, §4, §5, §6, §7, §8, §9, §10, §11, §12

N87 cell = assay: Cell proliferation inhibitory activity (Cell-Titer-Glo), N87; format: cell-based; settings: 72 h; 3 days incubation
Source text: as §1, §2, §3, §4, §5, §6, §7, §8, §9, §10, §11, §12

[2] = Pharmacokinetic evaluation in plasma after IV and PO administration; format: in vivo; settings: female Balb/c mice; for AUC(0-inf) / AUC(0-t) / C0 / clearance / half-life / MRT inf / MRT last / Vd / Cmax / Tmax / bioavailability: mouse; for MRT inf: read-out: MRT0-inf; for MRT last: read-out: MRT0-last; for Vd: read-out: Vdss
Protocol: Experimental Embodiment 3: Pharmacokinetic Evaluation
The test compound was mixed with […] (Cremophor EL), vortexed and sonicated to prepare a 1 mg/mL near-clear solution, which was filtered with a microporous filter membrane for future use. Female Balb/c mice of 18 to 20 grams were selected and the solution of the test compound was administered intravenously at a dose of 1 or 2 mg/kg. The test compound was mixed with an aqueous solution of 1% Tween 80, 9% polyethylene glycol 400, and 90% water, vortexed and sonicated to prepare 1 mg/mL near-clear solution, which was filtered with a microporous filter membrane for future use.
Female Balb/c mice of 18 to 20 grams were selected, and the solution of the test compound was orally administered at a dose of 2 or 10 mg/kg. The whole blood was collected at a certain time, and prepared into plasma. The drug concentration was analyzed by LC-MS/MS, and the pharmacokinetic parameters were calculated using Phoenix WinNonlin software (Pharsight Corporation, USA).

[3] = system: human breast cancer MCF-7 cell subcutaneous xenograft tumor; assay: In vivo pharmacodynamic study, MCF-7 subcutaneous xenograft tumor; design: species or system BALB/c nude mouse; settings: 15 mg/kg
Source text: Experimental Embodiment 4: In Vivo Pharmacodynamic Study on BALB/c Nude Mouse Model of Human Breast Cancer MCF-7 Cell Subcutaneous Xenograft Tumor
Experimental objective: To study the efficacy of the test compounds on human breast cancer MCF-7 cell subcutaneous xenograft tumor in BALB/c nude mouse model.
Experimental animals: Female BALB/c nude mice, 6-8 weeks old, weighing 18-22 grams; supplier: Shanghai Xipuer-Bikai Experimental Animal Co., Ltd.
Human breast cancer MCF-7 cells (ECACC, article number: 86012803) were subjected to in vitro monolayer culture under the conditions of EMEM (EBSS)+2 mM […]+1% Non Essential Amino Acids (NEAA) medium containing 10% fetal bovine serum, 100 U/mL penicillin and 100 μg/mL streptomycin, and 37° C., 5% CO2incubator. Conventional digestion treatment was carried out with trypsin-EDTA twice a week for cell passage. When the cell saturation was 80%-90%, and the quantity reached the requirement, the cells were collected, counted and inoculated.
Estrogen tablets (0.18 mg) were inoculated into the left back of each mouse three days before cell inoculation, 0.2 mL (1×10^7) MCF-7 cells (added with matrigel, volume ratio of 1:1) were subcutaneously inoculated into the right back of each mouse. When the average volume of tumor reached 142 mm^3, the mice were divided into groups and began to be administrated.
The test compounds were prepared into clear solutions of 0.75 mg/mL, 1.5 mg/mL and 3 mg/mL. The vehicles were 5% DMSO+30% polyethylene glycol 300+65% water.
The experimental indexes were used for investigating whether the growth of the tumors had been inhibited, delayed or cured. The diameters of the tumors were measured with vernier calipers twice a week. The calculation formula of the tumor volume was: V=0.5a×b^2, wherein a and b represent the long and short diameters of the tumor respectively.
The antitumor efficacy of the compound was evaluated by TGI (%) or relative tumor proliferation rate T/C (%). TGI (%) reflects the inhibition rate of the tumor growth. Calculation of TGI (%): TGI (%)=[1−(average tumor volume at the end of administration in the treatment group−average tumor volume at the beginning of administration in the treatment group)/(average tumor volume at the end of treatment in the vehicle control group−average tumor volume at the beginning of treatment in the vehicle control group)]×[…].
Relative tumor proliferation rate T/C (%): The calculation formula was as follows: T/C %=TRTV/CRTV at the beginning of the treatment (TRTV: treatment group RTV; CRTV: negative control group RTV). The relative tumor volume (RTV) was calculated according to the results of tumor measurement. The calculation formula was RTV=Vt/V0, wherein V0 is the average tumor volume measured during administration of the groups (i.e. d0), and Vt is the average tumor volume during a certain measurement, the TRTV and CRTV were taken on the same day.
Statistical analysis included the mean and standard error (SEM) of tumor volume at each time point in each group. […] The comparison between two groups was analyzed by T-test, and the comparison between three or more groups was analyzed by one-way ANOVA.

## CNC(=O)c1cccc(-c2ccc3c(N4CCOC[C@@H]4C)nc(N4CCOC5(CC5)C4)nc3n2)c1 [Embodiment 1]
[1]
  Kd: 0.85 nM
MCF-7 cell
  IC50: 155 nM
HT-29 cell
  IC50: 485 nM
OE21 cell
  IC50: 313 nM
N87 cell
  IC50: 61 nM
[2]; IV 2 mg/kg
  AUCExtra: 0.124%
  AUMCExtra: 1.27%
  Tlast: 12 h
  AUC(0-inf): 7.42 µM·h
  AUC(0-t): 7.41 µM·h
  C0: 7.2 µM
  clearance: 9.45 mL/min/kg
  half-life: 1.65 h
  MRT inf: 1.38 h
  MRT last: 1.2 h
  Vd: 0.793 L/kg
[2]; PO 10 mg/kg
  AUCExtra: 0.174%
  AUMCExtra: 1.83%
  Tlast: 24.0 h
  AUC(0-inf): 35 µM·h
  AUC(0-t): 35 µM·h
  Cmax: 15.1 µM
  Tmax: 0.25 h
  bioavailability: 94.4%
  half-life: 3.33 h
  MRT inf: 2.74 h
  MRT last: 2.69 h

## CNC(=O)c1cccc(-c2ccc3c(N4CCOC[C@@H]4C)nc(N4CC5(CCC5)OC[C@@H]4C)nc3n2)c1 [Embodiment 30]
[1]
  Kd: 0.44 nM
HT-29 cell
  IC50: 442 nM
OE21 cell
  IC50: 158 nM

## C[C@H]1COC2(CCC2)CN1c1nc(N2CCOC[C@@H]2C)c2ccc(-c3cccc(C(N)=O)c3)nc2n1 [Embodiment 35]
[1]
  Kd: 0.4 nM
MCF-7 cell
  IC50: 105 nM
N87 cell
  IC50: 44 nM
[2]; IV 1 mg/kg
  AUCExtra: 0.246%
  AUMCExtra: 1.59%
  Tlast: 12.0 h
  AUC(0-inf): 7.4 µM·h
  AUC(0-t): 7.38 µM·h
  C0: 2.49 µM
  clearance: 5.07 mL/min/kg
  half-life: 1.38 h
  MRT inf: 2.16 h
  MRT last: 2.13 h
  Vd: 0.657 L/kg
[2]; PO 2 mg/kg
  AUCExtra: 1.84%
  AUMCExtra: 8.59%
  Tlast: 8.00 h
  AUC(0-inf): 8.75 µM·h
  AUC(0-t): 8.59 µM·h
  Cmax: 3.49 µM
  Tmax: 0.25 h
  bioavailability: 56.1%
  half-life: 1.33 h
  MRT inf: 2.13 h
  MRT last: 1.98 h

## C[C@H]1COCCN1c1nc(N2CCOC3(CCC3)C2)nc2nc(-c3cccc(C(N)=O)c3)ccc12 [Embodiment 44]
[1]
  Kd: 0.24 nM
MCF-7 cell
  IC50: 171 nM
N87 cell
  IC50: 89 nM
[3]
  T/C: 50.58%
  TGI: 65.23%
[3]; 27th day
  RTV (27th day): 2.11 ± 0.39
[3]; 27th day, mean ± SEM
  Tumor volume (27th day): 298 ± 55 mm^3
[3]; day 0, mean ± SEM
  Tumor volume (day 0): 143 ± 13 mm^3
